# Biological target: T1, Human TRPC6 (Homo sapiens, UniProt Q9Y210)
# T1 construct: expressed in transfected cells
# T1 sequence (Q9Y210 1-931): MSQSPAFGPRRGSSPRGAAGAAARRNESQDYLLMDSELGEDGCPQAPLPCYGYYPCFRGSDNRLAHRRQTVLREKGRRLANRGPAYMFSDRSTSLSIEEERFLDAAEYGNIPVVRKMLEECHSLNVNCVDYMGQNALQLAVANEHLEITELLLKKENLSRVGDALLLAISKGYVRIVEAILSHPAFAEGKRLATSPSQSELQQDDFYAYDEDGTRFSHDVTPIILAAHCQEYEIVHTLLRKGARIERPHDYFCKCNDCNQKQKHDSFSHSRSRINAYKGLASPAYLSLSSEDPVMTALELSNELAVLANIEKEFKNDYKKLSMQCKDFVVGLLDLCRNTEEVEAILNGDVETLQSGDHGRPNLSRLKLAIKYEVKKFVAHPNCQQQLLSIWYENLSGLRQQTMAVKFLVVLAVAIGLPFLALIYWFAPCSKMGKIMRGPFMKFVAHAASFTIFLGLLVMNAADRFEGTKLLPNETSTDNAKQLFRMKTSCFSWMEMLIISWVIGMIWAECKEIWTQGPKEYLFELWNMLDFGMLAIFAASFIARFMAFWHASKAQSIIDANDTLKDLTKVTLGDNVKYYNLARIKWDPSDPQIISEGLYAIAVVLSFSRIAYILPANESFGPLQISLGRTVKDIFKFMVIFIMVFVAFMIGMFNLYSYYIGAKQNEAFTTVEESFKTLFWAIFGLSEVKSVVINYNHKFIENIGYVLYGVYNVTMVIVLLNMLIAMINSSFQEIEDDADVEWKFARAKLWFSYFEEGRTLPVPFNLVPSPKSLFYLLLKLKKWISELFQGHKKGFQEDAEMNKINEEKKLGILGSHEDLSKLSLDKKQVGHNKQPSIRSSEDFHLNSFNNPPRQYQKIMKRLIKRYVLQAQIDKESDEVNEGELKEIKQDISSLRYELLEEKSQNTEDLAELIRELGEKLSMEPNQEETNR
# Test: Evaluation of TRPC6 channel inhibitory activity (1), FLIPR Calcium 5 Assay Kit, OAG stimulation (Compound Nos. 1-1293)
# Assay type: cell-based
# Settings: Human TRPC6 stably-expressing cells, OAG 30 μM, FLIPR Calcium 5 Assay Kit; read-out: Inhibitory activity (pIC50 class) (converted)
# In short: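 TRPC6 (human) stable cells, 24 h culture; Ca5 no-wash dye + probenecid 30 min; cpd 20 min; OAG 30 μM final; ΔF (pre-cpd min to post-OAG max); 0%/100% = no cpd / no cpd + no OAG; 4PL → pIC50, binned +/++/+++.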
row,IC50,Compound
1,10 to 1000 nM,"Cc1cc(Oc2cc(C#N)ccc2-c2ncc(CCN)cn2)cc(-c2nccs2)n1 [compound 595, 4-[5-(2-aminoethyl)pyrimidin-2-yl]-3-[2-methyl-6-(1,3-thiazol-2-yl)pyridin-4-yl]oxybenzonitrile]"
2,10 to 1000 nM,"Cc1cc(Oc2cc(C#N)ccc2-c2ncc(CCN)cn2)cc(-c2ncco2)n1 [compound 596, 4-[5-(2-aminoethyl)pyrimidin-2-yl]-3-[2-methyl-6-(1,3-oxazol-2-yl)pyridin-4-yl]oxybenzonitrile]"
3,10 to 1000 nM,"Cc1cc(Oc2cc(C#N)ccc2-c2ncc(CCN)cn2)cc(-c2cnccn2)n1 [compound 597, 4-[5-(2-aminoethyl)pyrimidin-2-yl]-3-(2-methyl-6-pyrazin-2-ylpyridin-4-yl)oxybenzonitrile]"
4,< 10 nM,"Cc1nc(Oc2cc(C#N)ccc2-c2ncc(CCN)cn2)cc(-c2ccccn2)n1 [compound 599, 4-[5-(2-aminoethyl)pyrimidin-2-yl]-3-(2-methyl-6-pyridin-2-ylpyrimidin-4-yl)oxybenzonitrile]"
5,10 to 1000 nM,"Cc1cc(Oc2cc(C#N)ccc2-c2ncc([C@H](O)CN)cn2)cc(-c2ncc(C)s2)n1 [compound 601, 4-[5-[(1S)-2-amino-1-hydroxyethyl]pyrimidin-2-yl]-3-[2-methyl-6-(5-methyl-1,3-thiazol-2-yl)pyridin-4-yl]oxybenzonitrile]"
6,10 to 1000 nM,"Cc1nc(Oc2cc(C#N)ccc2-c2ncc(CCN)cn2)cc(-c2ncc(C)s2)n1 [compound 602, 4-[5-(2-aminoethyl)pyrimidin-2-yl]-3-[2-methyl-6-(5-methyl-1,3-thiazol-2-yl)pyrimidm-4-yl]oxybenzonitrile]"
7,10 to 1000 nM,"Cc1nc(Oc2cc(C#N)ccc2-c2ccc([C@H](O)CN)cn2)cc(-c2nccs2)n1 [compound 603, 4-[5-[(1S)-2-amino-1-hydroxyethyl]pyridin-2-yl]-3-[2-methyl-6-(1,3-thiazol-2-yl)pyrimidin-4-yl]oxybenzonitrile]"
8,10 to 1000 nM,"Cc1cc(Oc2cc(C#N)ccc2-c2ccc([C@H](O)CN)cn2)cc(-c2ncc(C)s2)n1 [compound 605, 4-[5-[(1S)-2-amino-1-hydroxyethyl]pyridin-2-yl]-3-[2-methyl-6-(5-methyl-1,3-thiazol-2-yl)pyridin-4-yl]oxybenzonitrile]"
9,> 1000 nM,"Cc1cc(Oc2cc(C#N)ccc2-c2cnc(CN)s2)cc(N2CCOCC2)n1 [compound 607, 4-[2-(aminomethyl)-1,3-thiazol-5-yl]-3-(2-methyl-6-morpholin-4-ylpyridin-4-yl)oxybenzonitrile]"
10,> 1000 nM,"Cn1nc(-c2ccccn2)cc1Oc1cc(C#N)ccc1-c1cnc(CN)s1 [compound 608, 4-[2-(aminomethyl)-1,3-thiazol-5-yl]-3-(2-methyl-5-pyridin-2-ylpyrazol-3-yl)oxybenzonitrile]"
11,< 10 nM,"Cn1nc(-c2ccccn2)cc1Oc1cc(C#N)ccc1-c1ccc(CN)cn1 [compound 609, 4-[5-(aminomethyl)pyridin-2-yl]-3-(2-methyl-5-pyridin-2-ylpyrazol-3-yl)oxybenzonitrile]"
12,> 1000 nM,"Cc1cc(Oc2cc(C#N)ccc2-c2ccc(C[C@H](N)C(=O)O)cn2)cc(N2CCOCC2)n1 [compound 611, (2S)-2-amino-3-[6-[4-cyano-2-(2-methyl-6-morpholin-4-ylpyridin-4-yl)oxyphenyl]pyridin-3-yl]propanoic acid]"
13,10 to 1000 nM,"Cc1cc(Oc2cc(C#N)ccc2-c2ccc(C3(CN)COC3)cn2)cc(N2CCOCC2)n1 [compound 613, 4-[5-[3-(aminomethyl)oxetan-3-yl]pyridin-2-yl]-3-(2-methyl-6-morpholin-4-ylpyridin-4-yl)oxybenzonitrile]"
14,10 to 1000 nM,"Cn1nc(-c2ccccn2)cc1Oc1cc(C#N)ccc1-c1cccn2c(CN)nnc12 [compound 617, 4-[3-(aminomethyl)-[1,2,4]triazolo[4,3-a]pyridin-8-yl]-3-(2-methyl-5-pyridin-2-ylpyrazol-3-yl)oxybenzonitrile]"
15,10 to 1000 nM,"Cn1nc(C2CC2)cc1Oc1cc(C#N)ccc1-c1ccc(CN)c(C(=O)O)n1 [compound 618, 3-(aminomethyl)-6-[4-cyano-2-(5-cyclopropyl-2-methylpyrazol-3-yl)oxyphenyl]pyridine-2-carboxylic acid]"
16,< 10 nM,"Cn1nc(N2CCCCC2)cc1Oc1cc(C#N)ccc1-c1ccc(CN)cn1 [compound 621, 4-[5-(aminomethyl)pyridin-2-yl]-3-(2-methyl-5-piperidin-1-ylpyrazol-3-yl)oxybenzonitrile]"
17,< 10 nM,"Cn1nc(N2CCCC2)cc1Oc1cc(C#N)ccc1-c1ccc(CN)cn1 [compound 622, 4-[5-(aminomethyl)pyridin-2-yl]-3-(2-methyl-5-pyrrolidin-1-ylpyrazol-3-yl)oxybenzonitrile]"
18,< 10 nM,"CN(C)c1cc(Oc2cc(C#N)ccc2-c2ccc(CN)cn2)n(C)n1 [compound 623, 4-[5-(aminomethyl)pyridin-2-yl]-3-[5-(dimethylamino)-2-methylpyrazol-3-yl]oxybenzonitrile]"

# Further lines, the compound ahead of its results:
row,Compound,IC50
1,"Cn1nc(C2CC2)cc1Oc1cc(C#N)ccc1-c1cccc2c(N)noc12 [compound 594, 4-(3-amino-1,2-benzoxazol-7-yl)-3-(5-cyclopropyl-2-methylpyrazol-3-yl)oxybenzonitrile]",> 1000 nM
2,"Cc1nc(Oc2cc(C#N)ccc2-c2ncc(CCN)cn2)cc(-c2nccs2)n1 [compound 598, 4-[5-(2-aminoethyl)pyrimidin-2-yl]-3-[2-methyl-6-(1,3-thiazol-2-yl)pyrimidin-4-yl]oxybenzonitrile]",10 to 1000 nM
3,"Cc1cc(Oc2cc(C#N)ccc2-c2ncc([C@H](O)CN)cn2)cc(-c2nc(C)cs2)n1 [compound 600, 4-[5-[(1S)-2-amino-1-hydroxyethyl]pyrimidin-2-yl]-3-[2-methyl-6-(4-methyl-1,3-thiazol-2-yl)pyridin-4-yl]oxybenzonitrile]",10 to 1000 nM
4,"Cc1nc(Oc2cc(C#N)ccc2-c2ccc([C@H](O)CN)cn2)cc(-c2ccccn2)n1 [compound 604, 4-[5-[(1S)-2-amino-1-hydroxyethyl]pyridin-2-yl]-3-(2-methyl-6-pyridin-2-ylpyrimidin-4-yl)oxybenzonitrile]",< 10 nM
5,"Cc1nc(Oc2cc(C#N)ccc2-c2ccc([C@H](O)CN)cn2)cc(-c2ncc(C)s2)n1 [compound 606, 4-[5-[(1S)-2-amino-1-hydroxyethyl]pyridin-2-yl]-3-[2-methyl-6-(5-methyl-1,3-thiazol-2-yl)pyrimidin-4-yl]oxybenzonitrile]",10 to 1000 nM
6,"Cn1nc(C2CC2)cc1Oc1cc(C#N)ccc1-c1ccc(CC2(N)COC2)cn1 [compound 610, 4-[5-[(3-aminooxetan-3-yl)methyl]pyridin-2-yl]-3-(5-cyclopropyl-2-methylpyrazol-3-yl)oxybenzonitrile]",< 10 nM
7,"Cn1nc(C2CC2)cc1Oc1cc(C#N)ccc1-c1ccc(C[C@H](N)C(=O)O)cn1 [compound 612, (2S)-2-amino-3-[6-[4-cyano-2-(5-cyclopropyl-2-methylpyrazol-3-yl)oxyphenyl]pyridin-3-yl]propanoic acid]",> 1000 nM
8,"Cc1cc(Oc2cc(C#N)ccc2-c2ccc(C[C@@H](N)C(=O)O)cn2)cc(N2CCOCC2)n1 [compound 614, (2R)-2-amino-3-[6-[4-cyano-2-(2-methyl-6-morpholin-4-ylpyridin-4-yl)oxyphenyl]pyridin-3-yl]propanoic acid]",> 1000 nM
9,"Cc1nc(Oc2cc(C#N)ccc2-c2ccc(CC3(N)COC3)cn2)cc(N2CCCC2)n1 [compound 616, 4-[5-[(3-aminooxetan-3-yl)methyl]pyridin-2-yl]-3-(2-methyl-6-pyrrolidin-1-ylpyrimidin-4-yl)oxybenzonitrile]",10 to 1000 nM
10,"N#Cc1ccc(-c2ncc(CCN)cn2)c(Oc2cnnc(N3CCCCC3)c2)c1 [compound 619, 4-[5-(2-aminoethyl)pyrimidin-2-yl]-3-(6-piperidin-1-ylpyridazin-4-yl)oxybenzonitrile]",< 10 nM
11,"N#Cc1ccc(-c2ncc(CCN)cn2)c(Oc2cnnc(N3CCOCC3)c2)c1 [compound 620, 4-[5-(2-aminoethyl)pyrimidin-2-yl]-3-(6-morpholin-4-ylpyridazin-4-yl)oxybenzonitrile]",10 to 1000 nM
12,"Cn1nc(N2CCCCC2)cc1Oc1cc(C#N)ccc1-c1ncc(CN)cn1 [compound 624, 4-[5-(aminomethyl)pyrimidin-2-yl]-3-(2-methyl-5-piperidin-1-ylpyrazol-3-yl)oxybenzonitrile]",< 10 nM

# From US20230167073A1 (Teijin Pharma Limited, priority 2020, published 2023)
